Results from patent US20060115440A1, “Silver dihydrogen citrate compositions” (priority 2004, published 2006).
Where two headings read alike, the source gives them in different places.

Tests used:
[1] = system: Corynebacterium xerosis (ATCC 373)
Excerpt: (§1) In the Table 57, test solutions contained 100 ppm Ag^+ in 5% citric acid solution at pH 7.0 (adjusted with NaOH).

[2] = system: Pseudomonas aeruginosa (ATCC 15442); conditions: test solutions contained 100 ppm Ag^+ in 5% citric acid solution at pH 7.0 (adjusted with NaOH)
Excerpt: as §1

[3] = system: Staphylococcus aureus (ATCC 6538); conditions: test solutions contained 100 ppm Ag^+ in 5% citric acid solution at pH 7.0 (adjusted with NaOH)
Excerpt: as §1

[4] = system: Escherichia coli (ATCC 10536); conditions: test solutions contained 100 ppm Ag^+ in 5% citric acid solution at pH 7.0 (adjusted with NaOH)
Excerpt: as §1

[5] = system: several varieties of bacteria
Excerpt: as §1
(§2) In the Table 58, test solutions contained 100 ppm Ag^+ in water at pH 7.0 (adjusted with NaOH).

[6] = system: Epidermophyton floccosum DSM 10709; conditions: test solutions 100 ppm Ag^+ in water at pH 7.0 (adjusted with NaOH)
Excerpt: as §2

[7] = system: Trichophyton rubrum (ATCC 10218); conditions: test solutions 100 ppm Ag^+ in water at pH 7.0 (adjusted with NaOH)
Excerpt: as §2

[8] = system: Trichophyton mentagrophytes (ATCC 9533); conditions: test solutions 100 ppm Ag^+ in water at pH 7.0 (adjusted with NaOH)
Excerpt: as §2

[9] = system: Candida albicans (ATCC 10231); conditions: test solutions 100 ppm Ag^+ in water at pH 7.0 (adjusted with NaOH)
Excerpt: as §2

[10] = system: Corynebacterium minutissimum (ATCC 23348); conditions: test solutions 100 ppm Ag^+ in water at pH 7.0 (adjusted with NaOH)
Excerpt: as §2

[11] = system: Propionibacterium acnes (ATCC 6919); conditions: test solutions 100 ppm Ag^+ in water at pH 7.0 (adjusted with NaOH)
Excerpt: as §2

[12] = system: Chaetomium globosum (ATCC 6205); conditions: test solutions 100 ppm Ag^+ in water at pH 7.0 (adjusted with NaOH)
Excerpt: as §2

[13] = system: Malessezia furfur (DSM 6171); conditions: test solutions 100 ppm Ag^+ in water at pH 7.0 (adjusted with NaOH)
Excerpt: as §2

[14] = in a mixture of anion, non-ionic and amphoteric surfactants
[15] = system: bacteria, fungi and viruses

Which “Minimum Inhibitory Concentration (MIC)” value ([1]; Corynebacterium xerosis (ATCC 373), test solutions 100 ppm Ag^+ in water at pH 7.0 (adjusted with NaOH)) does the source give for `O=C(O)CC(O)(CC(=O)O)C(=O)[O-].[Ag+]` [Silver dihydrogen citrate, silver dihydrogen citrate] here?
Its value is 3.0 μg/ml Ag^+.

And the “Minimum Inhibitory Concentration (MIC)” value ([1]; test solutions contained 100 ppm Ag^+ in 5% citric acid solution at pH 7.0 (adjusted with NaOH))?
Its value is 2.0 μg/ml Ag^+.

What about the “Minimum Inhibitory Concentration (MIC)” value [2] of the same compound?
The value was 4.0 μg/ml Ag^+.

And the “Minimum Inhibitory Concentration (MIC)” value [3]?
The value was 4.0 μg/ml μg/ml Ag^+.

And the “Minimum Inhibitory Concentration (MIC)” value [4]?
The value was 2.0 μg/ml Ag^+.

What about the “effect on several varieties of bacteria (in words)” value [5] of the same compound?
Its value is “bacteriostatic”.

What about the “Minimum Inhibitory Concentration (MIC)” value [6] of the same compound?
Its value is 12-48 μg/ml Ag^+.

And the “Minimum Inhibitory Concentration (MIC)” value [7]?
Its value is 12-48 μg/ml Ag^+.

And the “Minimum Inhibitory Concentration (MIC)” value [8]?
Its value is 12-24 μg/ml Ag^+.

What about the “Minimum Inhibitory Concentration (MIC)” value [9] of the same compound?
Its value is 3.0 μg/ml Ag^+.

What about the “Minimum Inhibitory Concentration (MIC)” value [10] of the same compound?
The value was 3.0 μg/ml Ag^+.

What about the “Minimum Inhibitory Concentration (MIC)” value [11] of the same compound?
The value was 6.0 μg/ml Ag^+.

And the “Minimum Inhibitory Concentration (MIC)” value [12]?
Its value is 12-24 μg/ml Ag^+.

What about the “Minimum Inhibitory Concentration (MIC)” value [13] of the same compound?
The value was 6.0 μg/ml Ag^+.

And the “time-wise stability of the antimicrobial activity” value [14]?
The value was “stable and showed good preservation”.

And the “antimicrobial activity (in words)” value [15]?
Its value is “antimicrobial activity against a variety of microbes”.
